Test results as given in patent publication US10442796B2, “2,3,5-substituted thiophene compound as protein kinase inhibitor” (KOREA INSTITUTE OF SCIENCE AND TECHNOLOGY, priority 2016, dated 2019).
Residue numbers refer to the chain shown, from its start. Counter-ions that a name gives are not always drawn.

Columns and labels:
Assay in all cases: Growth inhibitory activity against Ba/F3 cell line
Format in all cases: cell-based
Parental Ba/F3 cells = settings: BaF3; Parental Ba/F3 with mouse IL-3 1 ng/mL; 72 hours; cell titer glo
Experimental: (§1) A Ba/F3 cell line expressing an FLT3 mutation gene was cultured in a culture solution including 90% RPMI, 10% FBS, and an antibiotic (Welgene). 100 uL of the Ba/F3 cell line was put into each of 5,000 wells of a TC-treated 96 well plate (SPL), and then 1 uL of a test compound diluted in dimethylsulfoxide (diluted for each 3 paint from a concentration of 1 mM, total 10 concentrations) was each injected thereinto. Thereafter, the resulting cell lines were incubated in a cell culture incubator for 72 hours. 50 uL of a cell titer glo (Promega) solution was added thereto, the resulting mixture was stored at room temperature for 10 minutes, and then the light emission intensity was measured by using a reader (Envision, PerkinElmer). The light emission intensity was shown as a graph for each final concentration of the test compound, and the GI50 value was obtained by using a Prism 5.0 (GraphPad) software.
A parental Ba/F3 cell line having no FLT3 mutation gene was cultured by using a culture solution supplemented with mouse IL-3 (R&D Systems), such that a final concentration became 1 ng/mL in the culture solution including 90% RPMI, 10% FBS, and an antibiotic (Welgene). The activity was measured by a method which is the same as described above.

FLT3-D835Y Ba/F3 cells = target: T1, FLT3-D835Y Ba/F3 cells (Homo sapiens, UniProt P36888, D835Y, cells depend on it); settings: Ba/F3 expressing FLT3-D835Y; 72 hours; cell titer glo; read-out: IC50 (uM) FLT3-D835Y
T1 sequence (P36888 1-993 D835Y): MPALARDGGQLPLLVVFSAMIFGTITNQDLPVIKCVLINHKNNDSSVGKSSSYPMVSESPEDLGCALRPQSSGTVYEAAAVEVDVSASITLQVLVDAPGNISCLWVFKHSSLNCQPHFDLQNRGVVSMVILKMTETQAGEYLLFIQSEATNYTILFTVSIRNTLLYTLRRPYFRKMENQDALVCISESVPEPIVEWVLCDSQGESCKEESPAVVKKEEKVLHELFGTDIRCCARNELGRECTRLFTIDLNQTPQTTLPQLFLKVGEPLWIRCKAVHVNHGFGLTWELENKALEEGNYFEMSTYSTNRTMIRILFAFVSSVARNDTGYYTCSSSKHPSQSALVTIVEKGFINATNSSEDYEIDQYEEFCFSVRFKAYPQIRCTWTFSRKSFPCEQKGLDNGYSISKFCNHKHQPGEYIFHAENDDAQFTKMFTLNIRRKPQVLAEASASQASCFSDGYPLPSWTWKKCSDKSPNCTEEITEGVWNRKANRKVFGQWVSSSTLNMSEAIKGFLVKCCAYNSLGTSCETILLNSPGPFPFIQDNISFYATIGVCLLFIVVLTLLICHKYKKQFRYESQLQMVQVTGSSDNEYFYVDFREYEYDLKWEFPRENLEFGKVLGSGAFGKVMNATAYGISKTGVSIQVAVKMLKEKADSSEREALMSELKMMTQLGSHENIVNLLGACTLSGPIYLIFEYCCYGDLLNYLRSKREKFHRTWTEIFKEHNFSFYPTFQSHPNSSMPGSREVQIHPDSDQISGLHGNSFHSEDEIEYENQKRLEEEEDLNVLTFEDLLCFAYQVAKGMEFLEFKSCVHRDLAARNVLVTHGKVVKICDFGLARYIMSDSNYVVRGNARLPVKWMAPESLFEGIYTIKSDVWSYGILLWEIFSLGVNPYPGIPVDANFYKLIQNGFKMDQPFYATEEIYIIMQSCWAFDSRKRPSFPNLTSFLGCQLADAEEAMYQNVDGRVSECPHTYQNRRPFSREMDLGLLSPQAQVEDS
Experimental: as §1

FLT3-ITD Ba/F3 cells = target: T2, FLT3-ITD Ba/F3 cells (Homo sapiens, UniProt P36888, cells depend on it, form not given); settings: Ba/F3 expressing FLT3-ITD; 72 hours; cell titer glo; read-out: IC50 (uM) FLT3-ITD
T2 sequence (P36888 1-993): T1 sequence (P36888 1-993 D835Y) with Y835D
Experimental: as §1

## NC(=O)Nc1cc(C#Cc2ccncc2)sc1C(=O)N[C@H]1CCCNC1 [Example 4, (S)—N-(piperidin-3-yl)-5-(pyridin-4-ylethynyl)-3-ureidothiophene-2-carboxamide]
Parental Ba/F3 cells
  IC50: 24 µM
FLT3-D835Y Ba/F3 cells
  GI50: 0.408 µM
FLT3-ITD Ba/F3 cells
  GI50: 0.016 µM

## CC(=O)N1CCC(n2cc(C#Cc3cc(NC(N)=O)c(C(=O)N[C@H]4CCCCNC4)s3)cn2)CC1 [Example 49]
Parental Ba/F3 cells
  IC50: > 5 µM
FLT3-D835Y Ba/F3 cells
  GI50: 0.437 µM
FLT3-ITD Ba/F3 cells
  GI50: 0.017 µM

## NC(=O)Nc1cc(C#Cc2cccnc2)sc1C(=O)N[C@H]1CCCNC1 [Example 3, (S)—N-(piperidin-3-yl)-5-(pyridin-3-ylethynyl)-3-ureidothiophene-2-carboxamide]
Parental Ba/F3 cells
  IC50: 6.46 µM
FLT3-D835Y Ba/F3 cells
  GI50: 0.05 µM
FLT3-ITD Ba/F3 cells
  GI50: < 0.005 µM

## NC(=O)Nc1cc(C#Cc2ccc(Cl)cc2)sc1C(=O)N[C@H]1CCCNC1 [Example 8, (S)-5-((4-chlorophenyl)ethynyl)-N-(piperidin-3-yl)-3-ureidothiophene-2-carboxamide]
Parental Ba/F3 cells
  IC50: 0.36 µM
FLT3-D835Y Ba/F3 cells
  GI50: 0.01 µM
FLT3-ITD Ba/F3 cells
  GI50: 0.001 µM

## CS(=O)(=O)N1CCC(n2cc(C#Cc3cc(NC(N)=O)c(C(=O)N[C@H]4CCCNC4)s3)cn2)CC1 [Example 23, (S)-5-((1-(1-(methylsulfonyl)piperidin-4-yl)-1H-pyrazol-4-yl)ethynyl)-N-(piperidin-3-yl)-3-ureidothiophene-2-carboxamide]
Parental Ba/F3 cells
  IC50: > 5 µM
FLT3-D835Y Ba/F3 cells
  GI50: 0.18 µM
FLT3-ITD Ba/F3 cells
  GI50: 0.007 µM

## NC(=O)Nc1cc(C#Cc2cn[nH]c2)sc1C(=O)N[C@H]1CCCCNC1 [Example 42, (S)-5-((1H-pyrazol-4-yl)ethynyl)-N-(azepan-3-yl)-3-ureidothiophene-2-carboxamide trifluoroacetate]
Parental Ba/F3 cells
  IC50: 54.4 µM
FLT3-D835Y Ba/F3 cells
  GI50: 4.01 µM
FLT3-ITD Ba/F3 cells
  GI50: 0.137 µM

## NC(=O)Nc1cc(C#Cc2ccc(C(F)(F)F)nc2)sc1C(=O)N[C@H]1CCCNC1 [Example 17, (S)—N-(piperidin-3-yl)-5-((6-(trifluoromethyl)pyridin-3-yl)ethynyl)-3-ureidothiophene-2-carboxamide]
Parental Ba/F3 cells
  IC50: 2.37 µM
FLT3-D835Y Ba/F3 cells
  GI50: 0.064 µM
FLT3-ITD Ba/F3 cells
  GI50: < 0.005 µM

## NC(=O)Nc1cc(C#Cc2ccccc2)sc1C(=O)N[C@H]1CCCNC1 [Example 2, (S)-5-(phenylethynyl)-N-(piperidin-3-yl)-3-ureidothiophene-2-carboxamide]
Parental Ba/F3 cells
  IC50: 0.159 µM
FLT3-D835Y Ba/F3 cells
  GI50: 0.002 µM
FLT3-ITD Ba/F3 cells
  GI50: < 0.001 µM

## NC(=O)Nc1cc(CCc2cccc(F)c2)sc1C(=O)N[C@H]1CCCNC1 [Example 53]
Parental Ba/F3 cells
  IC50: 44.5 µM
FLT3-D835Y Ba/F3 cells
  GI50: 1.61 µM
FLT3-ITD Ba/F3 cells
  GI50: 0.359 µM

## COC(=O)c1ccc(C#Cc2cc(NC(N)=O)c(C(=O)N[C@H]3CCCNC3)s2)cc1 [Example 18, methyl (S)-4-((5-(piperidin-3-ylcarbamoyl)-4-ureidothiophen-2-yl)ethynyl)benzoate trifluoroacetate]
Parental Ba/F3 cells
  IC50: 0.454 µM
FLT3-D835Y Ba/F3 cells
  GI50: 0.011 µM
FLT3-ITD Ba/F3 cells
  GI50: 0.003 µM

## NC(=O)Nc1cc(C#Cc2ccc([N+](=O)[O-])cc2)sc1C(=O)N[C@H]1CCCNC1 [Example 7, (S)-5-((4-nitrophenyl)ethynyl)-N-(piperidin-3-yl)-3-ureidothiophene-2-carboxamide]
Parental Ba/F3 cells
  IC50: 1.86 µM
FLT3-D835Y Ba/F3 cells
  GI50: 0.07 µM
FLT3-ITD Ba/F3 cells
  GI50: < 0.005 µM

## Cn1cc(CCc2cc(NC(N)=O)c(C(=O)N[C@H]3CCCCNC3)s2)cn1 [Example 52, (S)—N-(azepan-3-yl)-5-(2-(1-methyl-1H-pyrazol-4-yl)ethyl)-3-ureidothiophene-2-carboxamide trifluoroacetate]
Parental Ba/F3 cells
  IC50: > 100 µM
FLT3-D835Y Ba/F3 cells
  GI50: > 33 µM
FLT3-ITD Ba/F3 cells
  GI50: 6.28 µM

## NC(=O)Nc1cc(C#Cc2ccnc(F)c2)sc1C(=O)N[C@H]1CCCNC1 [Example 21, (S)-5-((2-fluoropyridin-4-yl)ethynyl)-N-(piperidin-3-yl)-3-ureidothiophene-2-carboxamide]
Parental Ba/F3 cells
  IC50: 2.78 µM
FLT3-D835Y Ba/F3 cells
  GI50: 0.041 µM
FLT3-ITD Ba/F3 cells
  GI50: < 0.005 µM

## NC(=O)Nc1cc(C#Cc2cccc(F)c2)sc1C(=O)N[C@H]1CCCCNC1 [Example 50, (S)—N-(azepan-3-yl)-5-((3-fluorophenyl)ethynyl)-3-ureidothiophene-2-carboxamide]
Parental Ba/F3 cells
  IC50: 7.8 µM
FLT3-D835Y Ba/F3 cells
  GI50: 0.228 µM
FLT3-ITD Ba/F3 cells
  GI50: 0.023 µM

## CCn1cc(C#Cc2cc(NC(N)=O)c(C(=O)N[C@H]3CCCCNC3)s2)cn1 [Example 43, (S)—N-(azepan-3-yl)-5-((l-ethyl-1H-pyrazol-4-yl)ethynyl)-3-ureidothiophene-2-carboxamide trifluoroacetate]
Parental Ba/F3 cells
  IC50: 4.1 µM
FLT3-D835Y Ba/F3 cells
  GI50: 0.3 µM
FLT3-ITD Ba/F3 cells
  GI50: 0.01 µM

## N#Cc1ccc(C#Cc2cc(NC(N)=O)c(C(=O)N[C@H]3CCCNC3)s2)cc1 [Example 11, (S)-5-((4-cyanophenyl)ethynyl)-N-(piperidin-3-yl)-3-ureidothiophene-2-carboxamide]
Parental Ba/F3 cells
  IC50: 0.143 µM
FLT3-D835Y Ba/F3 cells
  GI50: 0.003 µM
FLT3-ITD Ba/F3 cells
  GI50: < 0.001 µM

## NC(=O)Nc1cc(C#Cc2ccc(F)cc2)sc1C(=O)N[C@H]1CCCNC1 [Example 9, (S)-5-((4-fluorophenyl)ethynyl)-N-(piperidin-3-yl)-3-ureidothiophene-2-carboxamide]
Parental Ba/F3 cells
  IC50: 0.429 µM
FLT3-D835Y Ba/F3 cells
  GI50: 0.003 µM
FLT3-ITD Ba/F3 cells
  GI50: < 0.001 µM

## NC(=O)Nc1cc(C#Cc2ccc(F)nc2)sc1C(=O)N[C@H]1CCCNC1 [Example 13, (S)-5-((6-fluoropyridin-3-yl)ethynyl)-N-(piperidin-3-yl)-3-ureidothiophene-2-carboxamide]
Parental Ba/F3 cells
  IC50: 2.22 µM
FLT3-D835Y Ba/F3 cells
  GI50: 0.014 µM
FLT3-ITD Ba/F3 cells
  GI50: 0.002 µM

## NC(=O)Nc1cc(C#Cc2cccc(F)c2)sc1C(=O)NC1CCNC1 (stereo not drawn) [Example 40, 5-((3-fluorophenyl)ethynyl)-N-(pyrrolidin-3-yl)-3-ureidothiophene-2-carboxamide]
Parental Ba/F3 cells
  IC50: 14.9 µM
FLT3-D835Y Ba/F3 cells
  GI50: 0.925 µM
FLT3-ITD Ba/F3 cells
  GI50: 0.164 µM

## CS(=O)(=O)N1CCC(n2cc(C#Cc3cc(NC(N)=O)c(C(=O)N[C@H]4CCCCNC4)s3)cn2)CC1 [Example 47, (S)—N-(azepan-3-yl)-5-((1-(1-(methylsulfonyl)piperidin-4-yl)-1H-pyrazol-4-yl)ethynyl)-3-ureidothiophene-2-carboxamide trifluoroacetate]
Parental Ba/F3 cells
  IC50: > 5 µM
FLT3-D835Y Ba/F3 cells
  GI50: 0.533 µM
FLT3-ITD Ba/F3 cells
  GI50: 0.027 µM
